As usually defined, the EC50 is the concentration giving half of the maximal effect. As usually defined, the bioavailability is dose-corrected exposure relative to a reference, in per cent.

EC50 and bioavailability data for 19 compounds are collected here from patent US10407445B2, “Hepatitis C virus inhibitors” (ENANTA PHARMACEUTICALS, INC., priority 2013, dated 2019).

Data set [1] concerns HCV GT 3a replicon. The data set can be described thus: HCV replicon assay, GT2a chimeric replicon expressing NS5A from GT3a strain S52. The format is cell-based. Particulars: Hepatitis C virus. The procedure, abridged:
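Stable Huh-7.5 lines carried JFH-1 subgenomic replicons with hRluc-Neo reporter, in which NS5A was swapped for GT3a strain S52 or GT2a strain J6 NS5A. Renilla luciferase was read after 72 h relative to DMSO controls.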

Data set [2] relates to GT1a replicon encoding NS5A mutation Y93H. The experiment in a line: Transient replication assay, GT1a replicon with NS5A mutation Y93H. Format: cell-based. Particulars: Hepatitis C virus. (In general: Replicon systems follow genome replication, usually without infectious particles.)
Data set [3] can be described thus: IV and PO single dose pharmacokinetic studies in SD rats. The format is in vivo. Particulars: Sprague-Dawley, rat, plasma, male SD rats. As for the experimental part: The pharmacokinetics of selected compounds was characterized in male Sprague-Dawley (SD) rats (250-300 g). […] The intravenous (IV) dosing vehicle was 5% ethanol and 95% of 20% 2-hydroxypropyl β-cyclodextrin in water. The oral dosing vehicle was 33% of Microemulsion Preconcentrate #5 (a lipid based self-emulsifying drug delivery system, SEDDS) and 67% of 50 mM citrate buffer (final pH 3.6).
Serial blood samples (approximately 0.3 mL each) were collected from jugular vein or other suitable vein at specified time points. For the IV dosing group, the blood samples were collected predose and at 0.08, 0.25, 0.50, 1, 3, 6, 8, and 24 hours after the start of dosing. For the oral group, the blood samples were collected predose and at 0.08, 0.25, 0.50, 1, 3, 6, 8, and 24 hours after dosing. The blood samples were collected into VACUTAINER™ tubes containing EDTA-K3 as the anti-coagulant and were centrifuged at approximately 4° C. to obtain plasma. The plasma samples were stored at −20° C. until analysis by LC/MS/MS.
A bioanalytical method utilizing high performance liquid chromatography coupled to tandem mass spectrometry (LC/MS/MS) was developed for analysis of the selected compound in rat plasma. Detection was performed using multiple reaction monitoring (MRM); Ions representing the precursor (M+H)^+ species was selected in quadrupole 1 (Q1) and collided with nitrogen gas in the collision cell (Q2) to generate specific product ion, which was subsequently monitored by quadrupole 3 (Q3). Standard curve and quality control samples were prepared in male rat plasma and processed in the same way as the test samples to generate quantitative data.
Pharmacokinetic parameters were generated using non-compartmental pharmacokinetic analysis (Phoenix WinNonlin, version 6.3). Values below the lower limit of quantification (LLOQ) were assigned a value of zero if predose and treated as missing thereafter. Area under the curve (AUC) was calculated using the linear trapezoidal rule. The oral bioavailability (% F) was determined by comparison of the area under the curve (AUC) of the compound in plasma following oral administration to that generated following intravenous administration.

Data set [4] deals with HCV genotype 1a replicon, NS5A K24E Q30R. The experiment in a line: Transient replication assay, GT1a NS5A K24E Q30R. Format: cell-based. Particulars: Hepatitis C virus.
In data set [5] the test system is HCV genotype 1a replicon, NS5A K24N Q30R. The experiment in a line: Transient replication assay, GT1a NS5A K24N Q30R. Format: cell-based. As to conditions: Hepatitis C virus.
The mark [6] stands for this setting: oral gavage 20 mg/kg vs IV bolus 2 mg/kg.

Like-named read-outs stand apart in the source and are kept apart here.

As for `COC(=O)N[C@H](C(=O)N1C[C@]2(CCCOC2)C[C@H]1c1nc2ccc3cc(-c4ccc5c(ccc6nc([C@@H]7C[C@@H]8C[C@@H]8N7C(=O)[C@@H](NC(=O)OC)C(C)C)[nH]c65)c4)ccc3c2[nH]1)C(C)C` [Compound 21], the EC50 in data set [1] (72 h, read-out: EC50 3a) was determined as 0.09 nM; in data set [2] (read-out: EC50 1a Y93H) it was 4 nM. Also, the bioavailability in data set [3] (setting [6]) came to 3.4%.

As for `COC(=O)N[C@H](C(=O)N1C[C@]2(CCCOC2)C[C@H]1c1ncc(-c2ccc(-c3ccc4c(ccc5nc([C@@H]6C[C@@H]7COC[C@@H]7N6C(=O)[C@@H](NC(=O)OC)C(C)C)[nH]c54)c3)cc2)[nH]1)C(C)C` [Compound 35], the concentration for a half-maximal effect (EC50) in data set [1] (72 h, read-out: EC50 3a) worked out at 2 nM; in data set [2] (read-out: EC50 1a Y93H), 26 nM. This compound also came in with a bioavailability in data set [3] (setting [6]) of 1.1%.

As to `COC(=O)N[C@H](C(=O)N1CCC[C@H]1c1ncc(-c2ccc(-c3ccc4c(ccc5nc([C@@H]6C[C@]7(CCOC7)CN6C(=O)[C@@H](NC(=O)OC)C(C)C)[nH]c54)c3)cc2)[nH]1)C(C)C` [Compound 51], the EC50 worked out at 2 nM in data set [1] (72 h, read-out: EC50 3a) and 4 nM in data set [2] (read-out: EC50 1a Y93H). This compound also displayed a bioavailability in data set [3] (setting [6]) of 8.6%.

For `COC(=O)N[C@H](C(=O)N1C[C@]2(CCCOC2)C[C@H]1c1nc2ccc3cc(-c4ccc(-c5cnc([C@@H]6C[C@@H]7C[C@@H]7N6C(=O)[C@@H](NC(=O)OC)C(C)C)[nH]5)cc4)ccc3c2[nH]1)C(C)C` [Compound 22], the EC50 amounted to 0.6 nM in data set [1] (72 h, read-out: EC50 3a) and 6 nM in data set [2] (read-out: EC50 1a Y93H). The compound also yielded a bioavailability in data set [3] (setting [6]) of 9.4%.

As for `COC(=O)N[C@H](C(=O)N1C[C@]2(CCCOC2)C[C@H]1c1ncc(-c2ccc(-c3ccc4c(ccc5nc([C@@H]6CC7(CC7)CN6C(=O)[C@@H](NC(=O)OC)C(C)C)[nH]c54)c3)cc2)[nH]1)C(C)C` [Compound 28], the EC50 was 0.5 nM in data set [1] (72 h, read-out: EC50 3a) and 16 nM in data set [2] (read-out: EC50 1a Y93H). For the same compound, the bioavailability in data set [3] (setting [6]) stood at 7.2%.

In the case of `COC(=O)N[C@H](C(=O)N1CCC[C@H]1c1nc2ccc3cc(-c4ccc5c(ccc6nc([C@@H]7C[C@@]8(CCCOC8)CN7C(=O)[C@@H](NC(=O)OC)C(C)C)[nH]c65)c4)ccc3c2[nH]1)C(C)C` [Compound 48], the EC50 was found to be 0.07 nM in data set [1] (72 h, read-out: EC50 3a) and 2 nM in data set [2] (read-out: EC50 1a Y93H). Also, the bioavailability in data set [3] (setting [6]) was determined as 1.7%.

With `COC(=O)N[C@H](C(=O)N1C[C@]2(CCCOC2)C[C@H]1c1nc2ccc3cc(-c4ccc(-c5cnc([C@@H]6C[C@@H]7CCCC[C@@H]7N6C(=O)[C@@H](NC(=O)OC)C(C)C)[nH]5)cc4)ccc3c2[nH]1)C(C)C` [Compound 24], the EC50 in data set [1] (72 h, read-out: EC50 3a) is 0.1 nM; in data set [2] (read-out: EC50 1a Y93H), 3 nM. Further, the bioavailability in data set [3] (setting [6]) is 7.9%.

For `COC(=O)N[C@H](C(=O)N1C[C@]2(CCCOC2)C[C@H]1c1nc2ccc3cc(-c4ccc(-c5cnc([C@@H]6C[C@@H]7COC[C@@H]7N6C(=O)[C@@H](NC(=O)OC)C(C)C)[nH]5)cc4)ccc3c2[nH]1)C(C)C` [Compound 34], the concentration giving a half-maximal response (EC50) was 1.5 nM in data set [1] (72 h, read-out: EC50 3a) and 4 nM in data set [2] (read-out: EC50 1a Y93H). In data set [3] (setting [6]), the bioavailability was found to be 2.1%.

On to `COC(=O)N[C@H](C(=O)N1C[C@]2(CCCOC2)C[C@H]1c1ncc(-c2ccc(-c3ccc4c(ccc5nc([C@@H]6C[C@@]7(CCCOC7)CN6C(=O)[C@@H](NC(=O)OC)C(C)C)[nH]c54)c3)cc2)[nH]1)C(C)C` [Compound 11], for which the EC50 is 0.4 nM in data set [1] (72 h, read-out: EC50 3a) and 2 nM in data set [2] (read-out: EC50 1a Y93H). In addition, the bioavailability in data set [3] (setting [6]) is 7.1%.

As to `COC(=O)N[C@H](C(=O)N1C[C@]2(CCCOC2)C[C@H]1c1nc2ccc3cc(-c4ccc5c(ccc6nc([C@@H]7C[C@@H]8CCCC[C@@H]8N7C(=O)[C@@H](NC(=O)OC)C(C)C)[nH]c65)c4)ccc3c2[nH]1)C(C)C` [Compound 23], the EC50 is 0.06 nM in data set [1] (72 h, read-out: EC50 3a) and 1 nM in data set [2] (read-out: EC50 1a Y93H). Moreover, the bioavailability in data set [3] (setting [6]) was found to be 5.5%.

For the compound `COC(=O)N[C@H](C(=O)N1C[C@]2(CCCOC2)C[C@H]1c1nc2ccc3cc(-c4ccc(-c5cnc([C@@H]6C[C@H]7C[C@H]7N6C(=O)[C@@H](NC(=O)OC)C(C)C)[nH]5)cc4)ccc3c2[nH]1)C(C)C` [Compound 5], the EC50 in data set [1] (72 h, read-out: EC50 3a) came out at 0.5 nM; in data set [2] (read-out: EC50 1a Y93H), 2 nM. For the same compound, in data set [3] (setting [6]), the bioavailability worked out at 12.2%.

Consider `COC(=O)N[C@H](C(=O)N1C[C@]2(CCCOC2)C[C@H]1c1ncc(-c2ccc(-c3ccc4c(ccc5nc([C@@H]6CCCN6C(=O)[C@@H](NC(=O)OC)C(C)C)[nH]c54)c3)cc2)[nH]1)C(C)C` [drawing 233], for which the EC50 was determined as 0.08 nM in data set [1] (read-out: EC50 (nM) 3a) and 8 nM in data set [2] (read-out: EC50 (nM) 1a Y93H). Also, the bioavailability in data set [3] (comparative table, oral 20 mg/kg vs IV) amounted to 7%.

Take `COC(=O)N[C@H](C(=O)N1C[C@]2(CCCOC2)C[C@H]1c1ncc(-c2ccc(-c3ccc4c(ccc5nc([C@@H]6CCCN6C(=O)[C@@H](NC(=O)OC)C(C)C)[nH]c54)c3)cc2)[nH]1)C(C)C` [Compound 47]: the EC50 in data set [1] (72 h, read-out: EC50 3a) was determined as 0.08 nM; in data set [2] (read-out: EC50 1a Y93H), 8 nM. Moreover, the bioavailability in data set [3] (setting [6]) amounted to 7%.

Consider `COC(=O)N[C@H](C(=O)N1C[C@]2(CCCOC2)C[C@H]1c1ncc(-c2ccc(-c3ccc4c(ccc5nc([C@@H]6C[C@@H]7CCC[C@@H]7N6C(=O)[C@@H](NC(=O)OC)C(C)C)[nH]c54)c3)cc2)[nH]1)C(C)C` [Compound 16], for which the EC50 in data set [1] (72 h, read-out: EC50 3a) was determined as 0.8 nM; in data set [2] (read-out: EC50 1a Y93H) it was 8 nM; in data set [4], 1.8 nM; in data set [5] it was 1.2 nM. Besides, the bioavailability in data set [3] (setting [6]) was 23.7%.

Consider `COC(=O)N[C@H](C(=O)N1CCC[C@H]1c1nc(-c2ccc(-c3ccc(-c4c[nH]c([C@@H]5CCCN5C(=O)[C@@H](NC(=O)OC)C(C)C)n4)cc3)cc2)c[nH]1)C(C)C` [Daclatasvir, reference compound], for which the figures for the EC50 in data set [4] and in data set [5] were 3.5 nM and 8 nM, respectively.

With `COC(=O)N[C@H](C(=O)N1C[C@]2(CCCOC2)C[C@H]1c1nc2ccc3cc(-c4ccc5c(ccc6nc([C@@H]7C[C@H]8C[C@H]8N7C(=O)[C@@H](NC(=O)OC)C(C)C)[nH]c65)c4)ccc3c2[nH]1)C(C)C` [Compound 6], the EC50 was 0.08 nM in data set [1] (72 h, read-out: EC50 3a) and 0.8 nM in data set [2] (read-out: EC50 1a Y93H). In data set [3] (setting [6]), this compound came in with a bioavailability of 3.5%.

Take `COC(=O)N[C@H](C(=O)N1C[C@]2(CCCOC2)C[C@H]1c1nc2ccc3cc(-c4ccc5c(ccc6nc([C@@H]7C[C@@H]8CCC[C@@H]8N7C(=O)[C@@H](NC(=O)OC)C(C)C)[nH]c65)c4)ccc3c2[nH]1)C(C)C` [Compound 9]: the EC50 came out at 0.06 nM in data set [1] (72 h, read-out: EC50 3a) and 2 nM in data set [2] (read-out: EC50 1a Y93H). For the same compound, in data set [3] (setting [6]), the bioavailability stood at 2.6%.

`COC(=O)N[C@H](C(=O)N1CC2(CC2)C[C@H]1c1ncc(-c2ccc(-c3ccc4c(ccc5nc([C@@H]6C[C@@]7(CCCOC7)CN6C(=O)[C@@H](NC(=O)OC)C(C)C)[nH]c54)c3)cc2)[nH]1)C(C)C` [Compound 8]: the 50% effective concentration (EC50) in data set [1] (72 h, read-out: EC50 3a) is 0.9 nM; in data set [2] (read-out: EC50 1a Y93H), 4 nM. This compound had a bioavailability in data set [3] (setting [6]) of 4.1%.

Regarding `COC(=O)N[C@H](C(=O)N1C[C@]2(CCCOC2)C[C@H]1c1ncc(-c2ccc(-c3ccc4c(ccc5nc([C@@H]6C[C@@H]7CCCC[C@@H]7N6C(=O)[C@@H](NC(=O)OC)C(C)C)[nH]c54)c3)cc2)[nH]1)C(C)C` [Compound 29], the EC50 in data set [1] (72 h, read-out: EC50 3a) is 0.3 nM; in data set [2] (read-out: EC50 1a Y93H), 7 nM. Also, in data set [3] (setting [6]), the bioavailability came out at 17.1%.
